Test system: Detoxification protein genes
Experiment: DNA chip mRNA expression in yeast, detoxification protein genes (Table 8)
Type: cell-based, Saccharomyces cerevisiae S288C
How it was run: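 Value is the scanned fluorescence intensity ratio of exposed versus chemical-free cells. Log-phase S288C yeast in YPD at 25° C. received one toxic substance for two hours, dosed to slow growth without killing; Cy3/Cy5-labeled cDNA from oligo-dT-purified mRNA was hybridized to a whole-genome chip at 65° C.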

Oc1cc(Cl)c(Cl)cc1Cl [(6), 2,4,5-trichlorophenol]
The level of expressed mRNA in the presence of chemical substance/The level of expressed mRNA in the absence of chemical substance (yeast gene YBR293W): 0.9
The level of expressed mRNA in the presence of chemical substance/The level of expressed mRNA in the absence of chemical substance (yeast gene YCL035C): 5.1
The level of expressed mRNA in the presence of chemical substance/The level of expressed mRNA in the absence of chemical substance (yeast gene YCR083W): 2.4
The level of expressed mRNA in the presence of chemical substance/The level of expressed mRNA in the absence of chemical substance (yeast gene YDL100C): 2.1
The level of expressed mRNA in the presence of chemical substance/The level of expressed mRNA in the absence of chemical substance (yeast gene YDL168W): 1.4
The level of expressed mRNA in the presence of chemical substance/The level of expressed mRNA in the absence of chemical substance (yeast gene YDR256C): 0.5
The level of expressed mRNA in the presence of chemical substance/The level of expressed mRNA in the absence of chemical substance (yeast gene YDR453C): 1.7
The level of expressed mRNA in the presence of chemical substance/The level of expressed mRNA in the absence of chemical substance (yeast gene YDR513W): 2.1
The level of expressed mRNA in the presence of chemical substance/The level of expressed mRNA in the absence of chemical substance (yeast gene YDR538W): 1.0
The level of expressed mRNA in the presence of chemical substance/The level of expressed mRNA in the absence of chemical substance (yeast gene YEL027W): 1.1
The level of expressed mRNA in the presence of chemical substance/The level of expressed mRNA in the absence of chemical substance (yeast gene YEL065W): 2.3
The level of expressed mRNA in the presence of chemical substance/The level of expressed mRNA in the absence of chemical substance (yeast gene YER185W): 1.2
The level of expressed mRNA in the presence of chemical substance/The level of expressed mRNA in the absence of chemical substance (yeast gene YFL050C): 0.9
The level of expressed mRNA in the presence of chemical substance/The level of expressed mRNA in the absence of chemical substance (yeast gene YGL013C): 2.3
The level of expressed mRNA in the presence of chemical substance/The level of expressed mRNA in the absence of chemical substance (yeast gene YGL254W): 0.7
The level of expressed mRNA in the presence of chemical substance/The level of expressed mRNA in the absence of chemical substance (yeast gene YGR088W): 1.3
The level of expressed mRNA in the presence of chemical substance/The level of expressed mRNA in the absence of chemical substance (yeast gene YGR138C): 0.8
The level of expressed mRNA in the presence of chemical substance/The level of expressed mRNA in the absence of chemical substance (yeast gene YGR197C): 0.5
The level of expressed mRNA in the presence of chemical substance/The level of expressed mRNA in the absence of chemical substance (yeast gene YGR209C): 1.9
The level of expressed mRNA in the presence of chemical substance/The level of expressed mRNA in the absence of chemical substance (yeast gene YGR224W): 0.8
The level of expressed mRNA in the presence of chemical substance/The level of expressed mRNA in the absence of chemical substance (yeast gene YHL040C): 7.3
The level of expressed mRNA in the presence of chemical substance/The level of expressed mRNA in the absence of chemical substance (yeast gene YHL047C): 8.4
The level of expressed mRNA in the presence of chemical substance/The level of expressed mRNA in the absence of chemical substance (yeast gene YHR008C): 1.0
The level of expressed mRNA in the presence of chemical substance/The level of expressed mRNA in the absence of chemical substance (yeast gene YHR048W): 0.8
The level of expressed mRNA in the presence of chemical substance/The level of expressed mRNA in the absence of chemical substance (yeast gene YHR053C): 1.3
The level of expressed mRNA in the presence of chemical substance/The level of expressed mRNA in the absence of chemical substance (yeast gene YHR055C): 1.6
The level of expressed mRNA in the presence of chemical substance/The level of expressed mRNA in the absence of chemical substance (yeast gene YIR002C): 2.2
The level of expressed mRNA in the presence of chemical substance/The level of expressed mRNA in the absence of chemical substance (yeast gene YIR038C): 2.5
The level of expressed mRNA in the presence of chemical substance/The level of expressed mRNA in the absence of chemical substance (yeast gene YJL101C): 1.0
The level of expressed mRNA in the presence of chemical substance/The level of expressed mRNA in the absence of chemical substance (yeast gene YJR104C): 1.4
The level of expressed mRNA in the presence of chemical substance/The level of expressed mRNA in the absence of chemical substance (yeast gene YKL026C): 1.8
The level of expressed mRNA in the presence of chemical substance/The level of expressed mRNA in the absence of chemical substance (yeast gene YKL064W): 1.5
The level of expressed mRNA in the presence of chemical substance/The level of expressed mRNA in the absence of chemical substance (yeast gene YKR066C): 0.9
The level of expressed mRNA in the presence of chemical substance/The level of expressed mRNA in the absence of chemical substance (yeast gene YKR105C): 1.2
The level of expressed mRNA in the presence of chemical substance/The level of expressed mRNA in the absence of chemical substance (yeast gene YKR106W): 1.6
The level of expressed mRNA in the presence of chemical substance/The level of expressed mRNA in the absence of chemical substance (yeast gene YLL028W): 1.7
The level of expressed mRNA in the presence of chemical substance/The level of expressed mRNA in the absence of chemical substance (yeast gene YLL057C): 1.0
The level of expressed mRNA in the presence of chemical substance/The level of expressed mRNA in the absence of chemical substance (yeast gene YLL060C): 1.4
The level of expressed mRNA in the presence of chemical substance/The level of expressed mRNA in the absence of chemical substance (yeast gene YLR043C): 1.4
The level of expressed mRNA in the presence of chemical substance/The level of expressed mRNA in the absence of chemical substance (yeast gene YLR046C): 3.8
The level of expressed mRNA in the presence of chemical substance/The level of expressed mRNA in the absence of chemical substance (yeast gene YML028W): 1.2
The level of expressed mRNA in the presence of chemical substance/The level of expressed mRNA in the absence of chemical substance (yeast gene YML116W): 0.9
The level of expressed mRNA in the presence of chemical substance/The level of expressed mRNA in the absence of chemical substance (yeast gene YMR015C): 1.3
The level of expressed mRNA in the presence of chemical substance/The level of expressed mRNA in the absence of chemical substance (yeast gene YMR038C): 1.0
The level of expressed mRNA in the presence of chemical substance/The level of expressed mRNA in the absence of chemical substance (yeast gene YNL239W): 1.8
The level of expressed mRNA in the presence of chemical substance/The level of expressed mRNA in the absence of chemical substance (yeast gene YNL241C): 0.9
The level of expressed mRNA in the presence of chemical substance/The level of expressed mRNA in the absence of chemical substance (yeast gene YNL259C): 3.9
The level of expressed mRNA in the presence of chemical substance/The level of expressed mRNA in the absence of chemical substance (yeast gene YOL158C): 2.0
The level of expressed mRNA in the presence of chemical substance/The level of expressed mRNA in the absence of chemical substance (yeast gene YOR031W): 0.9
The level of expressed mRNA in the presence of chemical substance/The level of expressed mRNA in the absence of chemical substance (yeast gene YOR153W): 7.4
The level of expressed mRNA in the presence of chemical substance/The level of expressed mRNA in the absence of chemical substance (yeast gene YOR247W): 0.2
The level of expressed mRNA in the presence of chemical substance/The level of expressed mRNA in the absence of chemical substance (yeast gene YOR251C): 0.9
The level of expressed mRNA in the presence of chemical substance/The level of expressed mRNA in the absence of chemical substance (yeast gene YOR273C): 0.4
The level of expressed mRNA in the presence of chemical substance/The level of expressed mRNA in the absence of chemical substance (yeast gene YPL163C): 0.6
The level of expressed mRNA in the presence of chemical substance/The level of expressed mRNA in the absence of chemical substance (yeast gene YPR200C): 0.8
